Target: human 5-HT2C-VSV receptors (Homo sapiens, UniProt P28335, I156V/I160V/N158S)
Type: binding
Details: not given

Sequence of human 5-HT2C-VSV receptors (P28335 33-458 I156V/N158S/I160V limits assumed): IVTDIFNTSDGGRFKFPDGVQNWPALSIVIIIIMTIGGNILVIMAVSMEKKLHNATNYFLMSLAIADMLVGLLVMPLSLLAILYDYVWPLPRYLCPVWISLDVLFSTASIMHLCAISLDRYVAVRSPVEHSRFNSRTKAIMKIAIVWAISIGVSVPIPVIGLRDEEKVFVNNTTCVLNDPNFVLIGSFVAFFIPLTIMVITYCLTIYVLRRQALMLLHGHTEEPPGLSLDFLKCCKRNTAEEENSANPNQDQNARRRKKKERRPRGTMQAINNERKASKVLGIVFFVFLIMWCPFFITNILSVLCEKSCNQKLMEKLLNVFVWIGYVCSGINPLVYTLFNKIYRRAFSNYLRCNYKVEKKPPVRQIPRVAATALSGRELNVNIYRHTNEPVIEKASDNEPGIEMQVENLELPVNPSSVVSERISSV

SMILES | affinity to the 5HT2C receptor
COc1ccc(Sc2ccccc2C2CCNCC2)cc1 [1b, 4-[2-(4-Methoxy-phenylsulfanyl)-phenyl]-piperidine] | good affinity
Fc1ccc(C2CCNCC2)c(Sc2ccc(Cl)cc2)c1 [1d, 4-[2-(4-Chloro-phenylsulfanyl)-4-fluoro-phenyl]-piperidine] | good affinity
COc1ccc(Sc2cc(F)ccc2C2CCNCC2)cc1 [1e, 4-[2-(4-Methoxy-phenylsulfanyl)-4-fluoro-phenyl]-piperidine] | good affinity
Cc1ccc(Sc2ccc(C)cc2C2CCNCC2)cc1 [1f, 4-[2-(4-Methyl-phenylsulfanyl)-5-methyl-phenyl]-piperidine] | good affinity
Cc1ccc(Sc2ccc(F)cc2C)c(C2CCNCC2)c1 [1h, 4-[2-(4-Fluoro-2-methyl-phenylsulfanyl)-5-methyl-phenyl]-piperidine] | good affinity
COc1ccc(Sc2ccc(C)cc2C2CCNCC2)cc1 [1i, 4-[2-(4-Methoxy-phenylsulfanyl)-5-methyl-phenyl]-piperidine] | good affinity
COc1ccc(Sc2ccc(F)cc2C2CCNCC2)c(F)c1 [2a3, 4-[2-(2-Fluoro-4-methoxy-phenylsulfanyl)-5-fluoro-phenyl]-piperidine] | good affinity
Clc1ccc(Sc2ccccc2C2CCNCC2)cc1 [2a] | good affinity
COc1ccc(Sc2ccc(F)cc2C2CCNCC2)cc1 [2b, 4-[2-(4-Methoxy-phenylsulfanyl)-5-fluoro-phenyl]-piperidine] | good affinity
COc1ccc(Sc2c(F)cccc2C2CCNCC2)cc1 [2d, 4-[2-(4-Methoxy-phenylsulfanyl)-3-fluoro-phenyl]-piperidine] | good affinity
Cc1ccc(Sc2ccc(Cl)cc2)c(C2CCNCC2)c1 [2g, 4-[2-(4-Chloro-phenylsulfanyl)-5-methyl-phenyl]-piperidine] | good affinity
Fc1ccc(Sc2ccc(F)cc2C2CCNCC2)cc1 [2j, 4-[2-(4-Fluoro-phenylsulfanyl)-5-fluoro-phenyl]-piperidine] | good affinity
Fc1ccc(Sc2ccc(Cl)cc2F)c(C2CCNCC2)c1 [2p, 4-[2-(4-Chloro-2-fluoro-phenylsulfanyl)-5-fluoro-phenyl]-piperidine] | good affinity
Cc1ccc(Sc2ccc(F)cc2C2CCNCC2)c(F)c1 [2q, 4-[2-(2-Fluoro-4-methyl-phenylsulfanyl)-5-fluoro-phenyl]-piperidine] | good affinity
Fc1ccc(Sc2ccc(F)cc2C2CCNCC2)c(F)c1 [2t, 4-[2-(2,4-Difluoro-phenylsulfanyl)-5-fluoro-phenyl]-piperidine] | good affinity
Cc1ccc(Sc2c(F)cccc2C2CCNCC2)c(C)c1 [2u, 4-[2-(2,4-Dimethyl-phenylsulfanyl)-3-fluoro-phenyl]-piperidine] | good affinity
Fc1ccc(Sc2ccc(Br)cc2F)c(C2CCNCC2)c1 [2x, 4-[2-(4-Bromo-2-fluoro-phenylsulfanyl)-5-fluoro-phenyl]-piperidine] | good affinity
Fc1ccc(Sc2ccccc2C2CCNCC2)c(Cl)c1 [3a2, 4-[2-(2-Chloro-4-fluoro-phenylsulfanyl)-phenyl]-piperidine] | good affinity
Fc1ccc(Sc2ccccc2C2CCNCC2)c(F)c1 [3a4, 4-[2-(2,4-Difluoro-phenylsulfanyl)-phenyl]-piperidine] | good affinity
COc1ccc(Sc2ccc(F)cc2)c(C2CCNCC2)c1 [3c2, 4-[2-(4-Fluoro-phenylsulfanyl)-5-methoxy-phenyl]-piperidine] | good affinity

SMILES | affinity to the 5HT2C receptor
COc1ccc(Sc2cccc(F)c2C2CCNCC2)c(C)c1 [3d4, 4-[2-(4-Methoxy-2-methyl-phenylsulfanyl)-6-fluoro-phenyl]-piperidine] | good affinity
Cc1ccc(Sc2cccc(F)c2C2CCNCC2)cc1F [3d7, 4-[2-(3-Fluoro-4-methyl-phenylsulfanyl)-6-fluoro-phenyl]-piperidine] | good affinity
Fc1cccc(Sc2cccc(Cl)c2)c1C1CCNCC1 [3d10, 4-[2-(3-Chloro-phenylsulfanyl)-6-fluoro-phenyl]-piperidine] | good affinity
Fc1cccc(Sc2cccc(F)c2C2CCNCC2)c1 [3d11, 4-[2-(3-Fluoro-phenylsulfanyl)-6-fluoro-phenyl]-piperidine] | good affinity
Fc1ccccc1Sc1cccc(F)c1C1CCNCC1 [3d12, 4-[2-(2-Fluoro-phenylsulfanyl)-6-fluoro-phenyl]-piperidine] | good affinity
COc1cc(Sc2cccc(F)c2C2CCNCC2)ccc1F [3d13, 4-[2-(4-Fluoro-3-methoxy-phenylsulfanyl)-6-fluoro-phenyl]-piperidine] | good affinity
Fc1cc(Cl)ccc1Sc1cccc(F)c1C1CCNCC1 [3d15, 4-[2-(4-Chloro-2-fluoro-phenylsulfanyl)-6-fluoro-phenyl]-piperidine] | good affinity
Fc1cccc(Sc2ccc(C(F)(F)F)cc2)c1C1CCNCC1 [3d16, 4-[2-(4-Trifluoromethyl-phenylsulfanyl)-6-fluoro-phenyl]-piperidine] | good affinity
Fc1cccc(Sc2cccc(Cl)c2F)c1C1CCNCC1 [3d17, 4-[2-(3-Chloro-2-fluoro-phenylsulfanyl)-6-fluoro-phenyl]-piperidine] | good affinity
Cc1ccc(Sc2cccc(F)c2C2CCNCC2)cc1 [3d18, 4-[2-(4-Methyl-phenylsulfanyl)-6-fluoro-phenyl]-piperidine] | good affinity
Fc1cccc(Sc2ccc(Cl)cc2)c1C1CCNCC1 [3d19, 4-[2-(4-Chloro-phenylsulfanyl)-6-fluoro-phenyl]-piperidine] | good affinity
Cc1ccc(Sc2cccc(F)c2C2CCNCC2)c(F)c1 [3d21, 4-[2-(2-Fluoro-4-methyl-phenylsulfanyl)-6-fluoro-phenyl]-piperidine] | good affinity
COc1ccc(Sc2cccc(F)c2C2CCNCC2)c(F)c1 [3d23, 4-[2-(2-Fluoro-4-methoxy-phenylsulfanyl)-6-fluoro-phenyl]-piperidine] | good affinity
Fc1ccc(Sc2cccc(F)c2C2CCNCC2)c(F)c1 [3d24, 4-[2-(2,4-Difluoro-phenylsulfanyl)-6-fluoro-phenyl]-piperidine] | good affinity
COc1ccc(Sc2cccc(F)c2C2CCNCC2)c(Cl)c1 [3d25, 4-[2-(2-Chloro-4-methoxy-phenylsulfanyl)-6-fluoro-phenyl]-piperidine] | good affinity
COc1ccc(Sc2cccc(F)c2C2CCNCC2)cc1 [3d26, 4-[2-(4-Methoxy-phenylsulfanyl)-6-fluoro-phenyl]-piperidine] | good affinity
Fc1ccc(Sc2cccc(F)c2C2CCNCC2)cc1 [3d27, 4-[2-(4-Fluoro-phenylsulfanyl)-6-fluoro-phenyl]-piperidine] | good affinity
Fc1ccc(C2CCNCC2)c(Sc2ccccc2Cl)c1 [3f2, 4-[2-(2-Chloro-phenylsulfanyl)-4-fluoro-phenyl]-piperidine] | good affinity
Fc1ccc(Sc2cc(F)ccc2C2CCNCC2)cc1 [3f3, 4-[2-(4-Fluoro-phenylsulfanyl)-4-fluoro-phenyl]-piperidine] | good affinity

Tested on: hippocampal 5-HT
Details: rats, microdialysis, combined with citalopram; cited from earlier work

SMILES | increase of hippocampal 5-HT by citalopram
COc1ccc(NC(=O)c2ccc(-c3ccc(-c4nnc(C)o4)cc3C)cc2)cc1N1CCN(C)CC1 [GMC 2-29] | potentiated

Reference: patent US7732463B2, “4-(2-phenylsulfanyl-phenyl)-piperidine derivatives as serotonin reuptake inhibitors” (H. Lundbeck A/S, priority 2003, dated 2010)
